Literature values, collected in US6344433B1, “Long-acting disinfectant and its preparation method” (priority 1999, dated 2002).

Settings: crystal powder

## Oc1cc(Cl)ccc1Oc1ccc(Cl)cc1Cl [HD244, 2,4,4′-trichloro-2′-hydroxy diphenyl ether]
  solubility in water: hardly soluble in water
